What all share (type): cell-based, human
In experiment [1] the test system is MUC1 expression on CAR-MUC1-resistant CAPAN1 cells. Kind of experiment: MUC1 antigen expression by flow after decitabine treatment. The conditions noted are these: 1 μM, after 4 days of treatment; 3.5 before exposure. The procedure: One million CAPAN1 cells were fixed with 80% methanol and washed with 0.1% tween-PBS. 1 ug of anti-MUC1 antibody (Abcam Inc, Cambridge, Mass.) was added and incubated at RT for 30 mins. Then cultures were washed and incubated with 0.4 ug of a goat anti-mouse IgG APC antibody (BD Pharmingen, San Jose, Calif.) for 20 mins at 4° C. in the dark. Cells were then washed twice and analyzed.
CAPAN1 cells were culture in a T175 flask using complete IMDM media contained 1 μM 5-Aza-2′-deoxycytidine-decitabine-(Sigma-aldrich Inc., Saint Louis, Mo.) for 4 days, with fresh media+decitabine replenished daily. Subsequently, decitabine-treated CAPAN1 cells were rested for 2 days in complete IMDM, and then co-cultured with CAR-MUC1 T cells.
Finally, to determine whether CAR-T cell potency could be improved by combination with conventional epigenetic modulators, which can increase TAA expression by demethylating DNA, CAPAN1 cells were cultured that had been previously treated with CAR-MUC1 T cells and consequently expressed only low levels of the target antigen, with 1 μM of decitabine, a hypomethylating agent.

For experiment [2], the system named is CAPAN1 cells initially treated with CAR-MUC1 T cells. Kind of experiment: 72 hr co-culture of decitabine-treated resistant CAPAN1 cells with CAR-MUC1 T cells. The conditions noted are these: 1 μM for 4 days, then 72 hr co-culture, E:T 5:1. An excerpt: Data is reported as the mean±SD; n=4. (b) To determine whether decitabine exposure would upregulate MUC1 expression in this resistant population we evaluated antigen expression, by flow, on CAR-resistant cells (grey histogram) and those cultured in decitabine (black histogram). To next assess whether decitabine treatment resensitized CAPAN1 cells to CAR-MUC1 T cells we performed a 72-hr co-culture experiment using CAPAN1 cells initially treated with CAR-MUC1 T cells (c) then either left untreated or cultured with decitabine as targets (E:T 5:1). After 72-hours retreatment with CAR-MUC1 T cells, residual tumor cells were again quantified by flow. Data is reported as the mean±SD; n=2.
CAPAN1, 293T, 293T-MUC1-mOrange or 293T-PSCA-GFP, were used as targets. Briefly, GFP/CAPAN1 cells were mixed with either OKT3/CD28 blasts or CAR-modified T cells at a 1:5 ratio in the presence of IL2 (50 U/ml) in complete media. For our engineered tumor model, 293T-MUC1-mOrange and 293T-PSCA-GFP (or control 293T cells alone) were mixed at 1:1 ratio then OKT3/CD28 blasts or CAR-modified T cells were added to the mixture; 10:1 (T cells:tumor cell), in the presence of IL2 (50 U/ml) in complete media. After 72 hours all residual cells were collected, counted, stained and then analyzed by flow cytometry (Gallios; Beckman Coulter Inc., Brea, Calif.). […]

The test system of experiment [3] is CAR-MUC1 expression on effector T cells. The experiment in a line: CAR expression on modified T cells cultured with decitabine. The settings on record: after one day and several days. On the procedure: T cells were analyzed 3-4 weeks after the generation of the culture by surface-stained with monoclonal antibodies to: CD3, CD4, CD8, CD19, CD56, CD27, CD28, CD45RO, and CD62L (Becton Dickinson B D, Franklin Lakes, N.J.). Cells were washed once with PBS supplemented with 2% FBS, pelleted, and antibodies added in saturating amounts (10 ul). To detect CAR-transduced cells, T cells were stained with a monoclonal antibody Fc-specific cyanine-Cy5-conjugated antibody (Jackson Immuno Research Laboratories, Inc., West Grove, Pa.), which recognizes the IgG1-CH2CH3 component of the receptor. Cells were analyzed using a Gallios Flow cytometer and the data analyzed using Kaluza software (Beckman Coulter Inc., Brea, Calif.).
It is illustrated therein that one can modulate the intensity of CAR-MUC1 expression on effector cells when the effector cells are cultured with decitabine.

In the case of `Nc1ncn([C@H]2C[C@H](O)[C@@H](CO)O2)c(=O)n1` [decitabine, 5-Aza-2′-deoxycytidine], the “intensity of MUC1 expression” value in experiment [1] is 26.0 relative mean fluorescence intensity. The “re-sensitization of resistant tumor cells to CAR-MUC1 T cell killing” value in experiment [2] is “re-sensitizing previously resistant tumor cells to CAR-MUC1 T cell killing”. In addition, the “CAR-MUC1 expression on effector cells” value in experiment [3] is recorded as “increase in expression”.

The values are drawn from patent US11547740B2, “Histone deacetylase (HDAC) inhibitor up-regulates car expression and targeted antigen intensity, increasing antitumor efficacy” (Baylor College of Medicine, priority 2013, dated 2023).
